# ChEMBL document CHEMBL1140241, “Discovery of new diphenyloxazole derivatives containing a pyrrolidine ring: orally active prostacyclin mimetics. Part 2” (Bioorg Med Chem Lett, 2005)
# What was measured:
# Rattus norvegicus = species on record: Rattus norvegicus; experiment: In vitro inhibition of ADP-induced platelet aggregation in rat platelet rich plasma; format: functional
# [1] = In vitro inhibition of ADP-induced platelet aggregation in human platelet rich plasma; format: functional, cell-free
# Canis familiaris = species on record: Canis familiaris; experiment: In vitro inhibition of ADP-induced platelet aggregation in dog platelet rich plasma; format: functional; details: Canis lupus familiaris
# [2] = In vitro inhibition of ADP-induced platelet aggregation in monkey platelet rich plasma; format: functional; details: Cercopithecidae
# [3] = Percent oral bioavailability after intravenous administration at 3.2 mg/kg in rat; format: ADME, organism-based; details: in vivo, read-out: Ba
# [4] = Elimination half-life after intravenous administration at a dose of 0.032 mg/kg in dog; format: ADME, organism-based, Canis lupus familiaris; set-up: dose 0.032 mg/kg, route intravenous; details: in vivo
# [5] = Total body clearance of drug from the plasma after intravenous administration at 0.032 mg/kg in dog; format: ADME, organism-based, Canis lupus familiaris; set-up: dose 0.032 mg/kg, route intravenous; details: read-out: CLtot
# [6] = Percent oral bioavailability of the drug after intravenous administration at 0.032 mg/kg in dog; format: ADME, organism-based, Canis lupus familiaris; details: in vivo, read-out: Ba
# [7] = Elimination half-life after intravenous administration at a dose of 3.2 mg/kg in rat (n=3); format: ADME, organism-based; set-up: dose 3.2 mg/kg, route intravenous; details: in vivo
# [8] = Maximum (peak) plasma drug concentration after peroral administration at a dose of 0.032 mg/kg in dog; format: ADME, organism-based, Canis lupus familiaris; set-up: dose 0.032 mg/kg, route oral; details: po
# [9] = Area under plasma concentration-time curve after peroral administration at a dose of 3.2 mg/kg in rat (n=3); format: ADME, organism-based; set-up: dose 3.2 mg/kg, route oral; details: po
# [10] = Maximum (peak) plasma drug concentration after peroral administration at a dose of 3.2 mg/kg in rat (n=3); format: ADME, organism-based; set-up: dose 3.2 mg/kg, route oral; details: po
# [11] = Total body clearance of drug from the plasma after intravenous administration at 3.2 mg/kg in rat; format: ADME, organism-based; set-up: dose 3.2 mg/kg, route intravenous; details: read-out: CLtot
# [12] = Area Under Plasma concentration-time curve after peroral administration at a dose of 0.032 mg/kg in dog; format: ADME, organism-based, Canis lupus familiaris; set-up: dose 0.032 mg/kg, route oral; details: po
Structure (SMILES),IC50 (Rattus norvegicus) [nM],IC50 [1] [nM],other results
O=C(O)COc1cccc2c1CCCC2CCc1nc(-c2ccccc2)c(-c2ccccc2)o1 (configuration not stated),> 10000,1000,–
O=C(O)COc1cccc2c1CCC[C@H]2NCc1nc(-c2ccccc2)c(-c2ccccc2)o1,5000,190,–
O=C(O)COc1cccc2c1CCC[C@@H]2N1CCC[C@@H]1c1nc(-c2ccccc2)c(-c2ccccc2)o1,> 10000,870,–
O=C(O)COc1cccc2c1CCC[C@H]2N1CCC[C@H]1c1nc(-c2ccccc2)c(-c2ccccc2)o1,> 10000,640,–
O=C(O)COc1cccc2c1CCC[C@@H]2N1CCC[C@H]1c1nc(-c2ccccc2)c(-c2ccccc2)o1,2200,63,–
O=C(O)COc1cccc2c1CCC[C@@H]2OCc1nc(-c2ccccc2)c(-c2ccccc2)o1,–,1400,–
O=C(O)COc1cccc2c1CCC[C@@H]2NCc1nc(-c2ccccc2)c(-c2ccccc2)o1,–,1500,–
CC#CCC(C)[C@H](O)/C=C/[C@@H]1[C@H]2C/C(=C/CCCC(=O)O)C[C@H]2C[C@H]1O (some centres not stated) [ILOPROST],–,2.5,–
O=C(O)COc1cccc(C[C@@H]2CCCC=C2c2nc(-c3ccccc3)c(-c3ccccc3)o2)c1,1200,60,IC50 (Canis familiaris): 1300 nM
CCC/C(CC1CCc2c(cccc2OCC(=O)O)C1)=N\OC(c1ccccc1)c1ccccc1 (configuration not stated) [AP-227],–,150,–
O=C(O)COc1cccc2c1CCC[C@H]2OCc1nc(-c2ccccc2)c(-c2ccccc2)o1,–,140,–
O=C([O-])COc1cccc2c1CCC[C@H]2N1CCC[C@@H]1c1nc(-c2ccccc2)c(-c2ccccc2)o1.[Na+],630,19,IC50 [2]: 59 nM; bioavailability [3]: 31%; half-life [4]: 2.25 h; clearance [5]: 1 mL/min/kg; bioavailability [6]: 66%; IC50 (Canis familiaris): 780 nM; half-life [7]: 0.21 h; Cmax [8]: 61.2 ng/mL; AUC [9]: 172 ng·h/mL; Cmax [10]: 187 ng/mL; clearance [11]: 89.2 mL/min/kg; AUC [12]: 327 ng·h/mL
